{
  "source": "paper PMC3486884",
  "about": "(PLoS Pathogens, 2012)",
  "key": {"CVB4": {"tested_on": "CVB4", "conditions": "n=2"}, "HRV1A [1]": {"tested_on": "HRV1A", "assay": "microbe, parasite or virus in culture", "conditions": "Human rhinovirus sp., M-HeLa, 7 h"}, "HRV2": {"tested_on": "HRV2", "conditions": "n=2"}, "HRV16 [2]": {"tested_on": "HRV16", "assay": "microbe, parasite or virus in culture", "conditions": "Human rhinovirus sp., HRV16, HeLa, read-out: IC50 (HRV16)"}, "HRV1A [3]": {"tested_on": "HRV1A", "conditions": "for relative infection: n=2"}, "CVB3": {"tested_on": "CVB3", "conditions": "n=2"}, "[4]": {"tested_on": "influenza virus (strain A/Puerto Rico/8/34/H1N1 depicted PR8)", "assay": "microbe, parasite or virus in culture", "conditions": "unidentified influenza virus, A549, read-out: IC50 (PR8)"}, "HRV16 [5]": {"tested_on": "HRV16", "conditions": "n=2"}, "CVA21": {"tested_on": "CVA21", "conditions": "n=2"}, "HRV14": {"tested_on": "HRV14", "conditions": "n=2"}, "[6]": {"conditions": "nitazoxanide; cited from earlier work"}},
  "note": "Where two headings read alike, the source gives them in different places.",
  "data": [
    {"smiles": "CS(=O)(=O)c1ccc(NC(=O)c2cc(Cl)ccc2O)c(Cl)c1", "note": "[TVB-1338]", "values": [
      {"measurement": "relative infection", "setting": "CVB4; 0.1 µM", "value": 1.00},
      {"measurement": "relative infection", "setting": "CVB4; 0.3 µM", "value": 1.02},
      {"measurement": "relative infection", "setting": "CVB4; 0.9 µM", "value": 1.06},
      {"measurement": "relative infection", "setting": "CVB4; 2.8 µM", "value": 1.15},
      {"measurement": "relative infection", "setting": "CVB4; 8.3 µM", "value": 1.02},
      {"measurement": "relative infection", "setting": "CVB4; 25.0 µM", "value": 0.51},
      {"measurement": "activity at 0.03 µM", "setting": "HRV1A [1]; read-out: HRV1A infection (dsRNA), 0.03 µM", "value": 123, "unit": "%"},
      {"measurement": "activity at 0.1 µM", "setting": "HRV1A [1]; read-out: HRV1A infection (dsRNA), 0.10 µM", "value": 106, "unit": "%"},
      {"measurement": "activity at 0.31 µM", "setting": "HRV1A [1]; read-out: HRV1A infection (dsRNA), 0.31 µM", "value": 109, "unit": "%"},
      {"measurement": "activity at 0.93 µM", "setting": "HRV1A [1]; read-out: HRV1A infection (dsRNA), 0.93 µM", "value": 105, "unit": "%"},
      {"measurement": "activity at 2.78 µM", "setting": "HRV1A [1]; read-out: HRV1A infection (dsRNA), 2.78 µM", "value": 106, "unit": "%"},
      {"measurement": "activity at 8.33 µM", "setting": "HRV1A [1]; read-out: HRV1A infection (dsRNA), 8.33 µM", "value": 111, "unit": "%"},
      {"measurement": "activity at 25 µM", "setting": "HRV1A [1]; read-out: HRV1A infection (dsRNA), 25.00 µM", "value": 112, "unit": "%"},
      {"measurement": "relative infection", "setting": "HRV2; 0.1 µM", "value": 1.05},
      {"measurement": "relative infection", "setting": "HRV2; 0.3 µM", "value": 1.11},
      {"measurement": "relative infection", "setting": "HRV2; 0.9 µM", "value": 1.12},
      {"measurement": "relative infection", "setting": "HRV2; 2.8 µM", "value": 1.13},
      {"measurement": "relative infection", "setting": "HRV2; 8.3 µM", "value": 1.12},
      {"measurement": "relative infection", "setting": "HRV2; 25.0 µM", "value": 0.76},
      {"measurement": "IC50", "setting": "HRV16 [2]", "value": "~26.9", "unit": "µM"},
      {"measurement": "antiviral activity against HRV1A (structure-activity study, in words)", "setting": "HRV1A [3]", "value": "eliminated antiviral activity"},
      {"measurement": "relative infection", "setting": "HRV1A [3]; 0.1 µM", "value": 1.02},
      {"measurement": "relative infection", "setting": "HRV1A [3]; 0.3 µM", "value": 0.96},
      {"measurement": "relative infection", "setting": "HRV1A [3]; 0.9 µM", "value": 1.07},
      {"measurement": "relative infection", "setting": "HRV1A [3]; 2.8 µM", "value": 1.12},
      {"measurement": "relative infection", "setting": "HRV1A [3]; 8.3 µM", "value": 1.11},
      {"measurement": "relative infection", "setting": "HRV1A [3]; 25.0 µM", "value": 0.95},
      {"measurement": "relative infection", "setting": "CVB3; 0.1 µM", "value": 0.97},
      {"measurement": "relative infection", "setting": "CVB3; 0.3 µM", "value": 1.10},
      {"measurement": "relative infection", "setting": "CVB3; 0.9 µM", "value": 1.09},
      {"measurement": "relative infection", "setting": "CVB3; 2.8 µM", "value": 1.05},
      {"measurement": "relative infection", "setting": "CVB3; 8.3 µM", "value": 0.94},
      {"measurement": "relative infection", "setting": "CVB3; 25.0 µM", "value": 0.94},
      {"measurement": "IC50", "setting": "[4]", "value": 42.9, "unit": "µM"},
      {"measurement": "relative infection", "setting": "HRV16 [5]; 0.1 µM", "value": 1.09},
      {"measurement": "relative infection", "setting": "HRV16 [5]; 0.3 µM", "value": 1.11},
      {"measurement": "relative infection", "setting": "HRV16 [5]; 0.9 µM", "value": 1.15},
      {"measurement": "relative infection", "setting": "HRV16 [5]; 2.8 µM", "value": 1.13},
      {"measurement": "relative infection", "setting": "HRV16 [5]; 8.3 µM", "value": 1.02},
      {"measurement": "relative infection", "setting": "HRV16 [5]; 25.0 µM", "value": 0.67},
      {"measurement": "relative infection", "setting": "CVA21; 0.1 µM", "value": 1.02},
      {"measurement": "relative infection", "setting": "CVA21; 0.3 µM", "value": 1.05},
      {"measurement": "relative infection", "setting": "CVA21; 0.9 µM", "value": 1.03},
      {"measurement": "relative infection", "setting": "CVA21; 2.8 µM", "value": 1.05},
      {"measurement": "relative infection", "setting": "CVA21; 8.3 µM", "value": 1.06},
      {"measurement": "relative infection", "setting": "CVA21; 25.0 µM", "value": 0.81},
      {"measurement": "relative infection", "setting": "HRV14; 0.1 µM", "value": 1.07},
      {"measurement": "relative infection", "setting": "HRV14; 0.3 µM", "value": 1.12},
      {"measurement": "relative infection", "setting": "HRV14; 0.9 µM", "value": 1.20},
      {"measurement": "relative infection", "setting": "HRV14; 2.8 µM", "value": 1.17},
      {"measurement": "relative infection", "setting": "HRV14; 8.3 µM", "value": 1.13},
      {"measurement": "relative infection", "setting": "HRV14; 25.0 µM", "value": 0.62}
    ]},
    {"smiles": "CC(=O)Oc1ccccc1C(=O)Nc1ncc([N+](=O)[O-])s1", "note": "[Nitazoxanide, nitazoxanide]", "values": [
      {"measurement": "pKa", "setting": "[6]", "value": 5.8}
    ]}
  ]
}
